This experiment has as its target T1, AEA-DA-modified peptides in Neuro2a cells (Mus musculus, UniProt Q02819).
T1 construct: endogenous in cells; host or cells: Neuro2a
T1 sequence (Q02819 26-459): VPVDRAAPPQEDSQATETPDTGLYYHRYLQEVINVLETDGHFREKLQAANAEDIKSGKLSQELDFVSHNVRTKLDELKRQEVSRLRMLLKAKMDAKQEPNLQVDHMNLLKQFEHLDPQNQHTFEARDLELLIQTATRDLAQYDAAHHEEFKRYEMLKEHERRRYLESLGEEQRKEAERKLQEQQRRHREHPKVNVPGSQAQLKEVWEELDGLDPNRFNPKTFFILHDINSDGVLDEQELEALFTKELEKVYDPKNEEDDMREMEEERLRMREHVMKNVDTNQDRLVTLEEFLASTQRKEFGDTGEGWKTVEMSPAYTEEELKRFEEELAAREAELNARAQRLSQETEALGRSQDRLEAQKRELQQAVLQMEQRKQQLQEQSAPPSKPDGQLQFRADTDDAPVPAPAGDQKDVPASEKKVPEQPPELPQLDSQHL
Kind of experiment: isoTOP-ABPP mapping of AEA-DA-modified peptides in Neuro2a cells. Conditions: for Times observed: probe 100 μM, 12 replicates. The experiment is classed as cell-based. The method, then: Experiments were performed as described above using the AEA-DA probe (100 μM) in 3.0 mL of DMEM (serum-free) and Neuro2A cells without (twelve replicates; ten biological; two technical). For the ligand competition study, cells were treated with the AEA-DA probe (50 μM) and DMSO or MJN228 (50 μM) treatment. Cells were harvested and processed as described above. Whole cell lysates (500 μL at 1.5 mg/mL) were processed for MS analysis using the previously described isoTOPABPP protocol (Speers and Cravatt, 2005). In brief, for global mapping of AEA-DA-modified peptides, proteomes were split into two fractions, which were subjected to click chemistry conditions with either light or heavy isotopically labeled TEV-tags. For the […] competition study, proteomes were subjected to click chemistry conditions with either light (DMSO) or heavy (MJN228-treated) TEV-tags. Light and heavy-tagged proteomes in each experiment were then combined, and, following enrichment of probe-labeled targets using streptavidin beads, proteins were digested on-bead with trypsin and remaining immobilized peptides released with a subsequent TEV protease digestion. The resulting probe-modified peptides were collected for MS analysis, which was performed as described above with differences in the salt bumps applied in the chromatographic gradients which were 0%, 30%, 60%, 90% and 100% NH4OAc (500 mM). The protein identification searches of the MS data were performed using the same software packages described above with the following changes applied to identify the peptides modified with AEA-DA and the cleaved TEV tag. All amino acids were considered as possible residues for modification. To facilitate the computational searches, sets of up to 3 amino acids were searched using ProLuCID and filtered with DTASelect as described above. The mass of the modification used to search for probe-modified peptides was +727.4745 m/z for the probe plus the light TEV-tag and +733.4831 m/z for the heavy counterpart. […] For global mapping experiments, AEA-DA-modified peptides were expected to show a ratio of “heavy” and “light” signals of ˜1.0 (0.5<ratio<2.0) and were required to have been detected in at least two of the twelve replicate experiments.
In some embodiments, the ligands are tested for their interaction to NUCB1 in cells. […] MJN228 inhibited lipid probe binding to NUCB1 at concentrations as low as 10 μM, with near-maximal inhibition observed at ˜25 μM (FIG. 16A). […] The site of arachidonoyl probe (and MJN228) binding to NUCB1 was mapped in cells, which was accomplished by treating Neuro2A cells with the AEA-DA probe (50 μM) in the presence of DMSO or MJN228 (50 μM), followed by UV irradiation, CuAAC conjugation of AEA-DA-labeled proteins to isotopically light (DMSO-treated cells) and heavy (MJN228-treated cells) azide-biotin tags featuring a TEV protease-cleavable linker, and LCMS/MS analysis using a previously described platform, termed isoTOP-ABPP, for mapping probe-modified peptides in proteomes (Speers and Cravatt, 2005). A AEA-DA labeled peptide was identified for NUCB1 (aa 53-68) in DMSO-treated cells and the signals for this peptide were substantially (>5-fold) reduced in MJN228-treated cells (FIG. 15C). This AEA-DA labeling site was confirmed using recombinant, purified hNUCB1 and tandem MS analysis which narrowed down the site of probe modification to His67 (FIGS. 16B and 16C).

Turning to `C#CCCCC1(CC/C=C\C/C=C\C/C=C\CCCC(=O)NCCO)N=N1` [AEA-DA, (5Z,8Z,11Z)-N-(2-hydroxyethyl)-14-(3-(pent-4-yn-1-yl)-3H-diazirin-3-yl)tetradeca-5,8,11-trienamide], the Times observed is, setting by setting: (AEA-DA-modified peptide NUCB1 Q02819 53-69, SEQ ID NO 71) 11; (AEA-DA-modified peptide NUCB1 Q02819 246-275, SEQ ID NO 70) 4. For `CN1CCN(C(=O)c2[nH]c3ccc([N+](=O)[O-])cc3c2-c2ccccc2)CC1` [MJN228, (4-Methylpiperazin-1-yl)(5-nitro-3-phenyl-1H-indol-2-yl)methanone], for the setting “Neuro2A cells, AEA-DA 50 μM, MJN228 50 μM”, the “reduction of signals of AEA-DA labeled NUCB1 peptide (aa 53-68)” value is reported as > 5 fold.

Source of the values: patent US10168342B2, “Lipid probes and uses thereof” (THE SCRIPPS RESEARCH INSTITUTE, priority 2015, dated 2019).
